We go through three compounds from ChEMBL document CHEMBL1156403, “A new dimeric dihydrochalcone and a new prenylated flavone from the bud covers of Artocarpus altilis: potent inhibitors of cathepsin K” (J Nat Prod, 2002).

pIC50: −log10 of the molar value.

A word on the pIC50: it is −log10 of the IC50, conventionally taken in molar units. A higher pIC50 goes with a low IC50.

This assay deals with T1, Cathepsin K (Homo sapiens, UniProt P43235).
T1 sequence (P43235 whole entry): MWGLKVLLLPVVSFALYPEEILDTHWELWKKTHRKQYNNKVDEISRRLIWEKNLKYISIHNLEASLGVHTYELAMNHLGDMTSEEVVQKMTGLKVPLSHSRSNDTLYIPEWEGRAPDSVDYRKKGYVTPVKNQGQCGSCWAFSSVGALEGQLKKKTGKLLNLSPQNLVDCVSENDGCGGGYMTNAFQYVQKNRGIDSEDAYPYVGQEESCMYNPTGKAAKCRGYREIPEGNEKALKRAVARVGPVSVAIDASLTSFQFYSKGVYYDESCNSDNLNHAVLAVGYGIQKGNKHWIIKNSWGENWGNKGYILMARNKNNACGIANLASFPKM
In words: Inhibition of cathepsin K by fluorimetric assay.
The compound `CC(C)=CCC/C(C)=C/Cc1c(CCC(=O)c2ccc(O)cc2O)cc(-c2cc(O)c(O)c(C/C=C(\C)CCC=C(C)C)c2CCC(=O)c2ccc(O)cc2O)c(O)c1O` [CYCLOALTILISIN 6] had a pIC50 of 7.01.

With `CC(C)=CCCC1(C)C=Cc2c(cc(O)c3c2OC(c2ccc(O)cc2)CC3=O)O1` (stereo not drawn) [CYCLOALTILISIN 7], the pIC50 is 6.08. This pIC50 is 0.93 log units lower than that of the compound before.

On to `CC(C)=CCC/C(C)=C/Cc1c(CCC(=O)c2ccc(O)cc2O)ccc(O)c1O`, for which the pIC50 was 6.77.
